# Experimental data reported in patent publication US20050272822A1 (priority 2001, published 2005).
# Counter-ions that a name gives are not always drawn.
# Key:
# [1] = Stability in moist environments and in processes involving water; type: physicochemical
# [2] = Water vapor sorption/desorption (dynamic vapor sorption); details: two water sorption/desorption cycles, 25° C.
# Procedure: The sample weight changes were monitored as function of the time and relative humidity. Two identical relative humidity-time experiment cycles (0 to 90% relative humidity) were performed to detect any changes in solid-state properties.
# [3] = system: monoamine oxidase; details: cited from earlier work
# [4] = system: muscaranic receptors; details: in vitro; cited from earlier work
# [5] = system: histaminergic receptors; details: in vitro; cited from earlier work
# [6] = system: adrenergic receptors; details: in vitro; cited from earlier work
Compound,stability in moist environments ([1]; atmospheres having at least 20% relative humidity),"stability in processes involving water compared with known forms ([1]; processes involving water, such as wet granulation)",solid-state transition during dehydration/hydration cycling [2],inhibitory activity on monoamine oxidase [3],affinity for muscaranic receptors [4],affinity for histaminergic receptors [5],affinity for adrenergic receptors [6]
COc1ccc(C(CN(C)C)C2(O)CCCCC2)cc1 (stereo not shown) [venlafaxine hydrochloride monohydrate],stable,more stable than known forms,reversible,,,,
"COc1ccc(C(CN(C)C)C2(O)CCCCC2)cc1 (stereo not shown) [venlafaxine, 1-[2-(dimethylamino)-1-(4-methoxyphenyl)ethyl]cyclohexanol]",,,,no inhibitory activity,virtually no affinity,virtually no affinity,virtually no affinity
